Test results: PubChem BioAssay AID190 (DTP/NCI, 2004)
“And” between values parts separate entries of the source, which are not always exact repeats. Equal entries are not always repeated. Inconclusive results and toxic doses are left out.

Test system: AKR/Lw mice, AKR lymphoma ip, median survival T/C
Experiment: NCI In Vivo Anticancer Drug Screen. Data for tumor model Lymphoma AKR (Transplanted) (intraperitoneal) in AKR/Lw mice
Details: endpoint: median survival time, higher = longer survival
Protocol: The antitumor activity of compounds was measured in mice bearing transplantable tumors. Survival or tumor size were measured and the results are expressed as the measurement made in the treated group (T) divided by the measurement made in the vehicle treated control group (C). The tumor model used in this assay is Lymphoma AKR (Transplanted) (intraperitoneal) in AKR/Lw mice

[1] = dose: 50.0 mg/kg/injection, schedule: Q01DX001 (ip), vehicle: Klucel (hydroxypropylcellulose) (HPC)
[2] = dose: 100.0 mg/kg/injection, schedule: Q01DX001 (ip), vehicle: Klucel (hydroxypropylcellulose) (HPC)
[3] = dose: 200.0 mg/kg/injection, schedule: Q01DX001 (ip), vehicle: Klucel (hydroxypropylcellulose) (HPC)

Compound: CN(C)/N=N/c1nc[nH]c1C(N)=O
- T/C (dose: 12.5 mg/kg/injection, schedule: Q01DX009 (ip), vehicle: saline): 120 % of control
- T/C (dose: 25.0 mg/kg/injection, schedule: Q01DX009 (ip), vehicle: saline with Tween-80): 111 % of control
- T/C (dose: 25.0 mg/kg/injection, schedule: Q01DX009 (ip), vehicle: saline): 106 % of control and 123 % of control
- T/C (dose: 25.0 mg/kg/injection, schedule: Q04DX003 (ip), vehicle: Klucel (hydroxypropylcellulose) (HPC)): 102 % of control
- T/C (dose: 37.5 mg/kg/injection, schedule: Q04DX003 (ip), vehicle: Klucel (hydroxypropylcellulose) (HPC)): 116 % of control
- T/C [1]: 102 % of control
- T/C (dose: 50.0 mg/kg/injection, schedule: Q01DX005 (ip), vehicle: water): 116 % of control
- T/C (dose: 50.0 mg/kg/injection, schedule: Q01DX009 (ip), vehicle: saline with Tween-80): 111 % of control
- T/C (dose: 50.0 mg/kg/injection, schedule: Q04DX003 (ip), vehicle: Klucel (hydroxypropylcellulose) (HPC)): 105 % of control
- T/C (dose: 75.0 mg/kg/injection, schedule: Q04DX003 (ip), vehicle: Klucel (hydroxypropylcellulose) (HPC)): 102 % of control
- T/C (dose: 90.0 mg/kg/injection, schedule: Q01DX005 (ip), vehicle: Klucel (hydroxypropylcellulose) (HPC)): 158 % of control
- T/C [2]: 90 % of control and 113 % of control
- T/C (dose: 100.0 mg/kg/injection, schedule: Q01DX001 (ip), vehicle: saline): 105 % of control and 107 % of control
- T/C (dose: 100.0 mg/kg/injection, schedule: Q01DX005 (ip), vehicle: water): 120 % of control
- T/C (dose: 100.0 mg/kg/injection, schedule: Q01DX009 (ip), vehicle: Klucel (hydroxypropylcellulose) (HPC)): 100 % of control and 123 % of control
- T/C (dose: 100.0 mg/kg/injection, schedule: Q01DX009 (ip), vehicle: saline with Tween-80): 111 % of control
- T/C (dose: 100.0 mg/kg/injection, schedule: Q04DX003 (ip), vehicle: Klucel (hydroxypropylcellulose) (HPC)): 87 % of control
- T/C (dose: 135.0 mg/kg/injection, schedule: Q01DX005 (ip), vehicle: Klucel (hydroxypropylcellulose) (HPC)): 186 % of control and 188 % of control
- T/C (dose: 150.0 mg/kg/injection, schedule: Q01DX009 (ip), vehicle: saline): 111 % of control
- T/C [3]: 123 % of control
- T/C (dose: 200.0 mg/kg/injection, schedule: Q01DX001 (ip), vehicle: saline): 107 % of control (2×) and 113 % of control
- T/C (dose: 200.0 mg/kg/injection, schedule: Q01DX005 (ip), vehicle: Klucel (hydroxypropylcellulose) (HPC)): 97 % of control
- T/C (dose: 200.0 mg/kg/injection, schedule: Q01DX005 (ip), vehicle: water): 114 % of control
- T/C (dose: 200.0 mg/kg/injection, schedule: Q01DX009 (ip), vehicle: Klucel (hydroxypropylcellulose) (HPC)): 100 % of control and 123 % of control
- T/C (dose: 200.0 mg/kg/injection, schedule: Q01DX009 (ip), vehicle: saline with Tween-80): 117 % of control
- T/C (dose: 200.0 mg/kg/injection, schedule: Q04DX003 (ip), vehicle: Klucel (hydroxypropylcellulose) (HPC)): 100 % of control and 121 % of control and 122 % of control
- T/C (dose: 250.0 mg/kg/injection, schedule: Q04DX003 (ip), vehicle: Klucel (hydroxypropylcellulose) (HPC)): 111 % of control
- T/C (dose: 300.0 mg/kg/injection, schedule: Q01DX001 (ip), vehicle: Klucel (hydroxypropylcellulose) (HPC)): 120 % of control and 123 % of control
- T/C (dose: 350.0 mg/kg/injection, schedule: Q04DX003 (ip), vehicle: Klucel (hydroxypropylcellulose) (HPC)): 163 % of control
- T/C (dose: 500.0 mg/kg/injection, schedule: Q01DX001 (ip), vehicle: Klucel (hydroxypropylcellulose) (HPC)): 107 % of control and 111 % of control
- T/C (dose: 600.0 mg/kg/injection, schedule: Q01DX001 (ip), vehicle: Klucel (hydroxypropylcellulose) (HPC)): 110 % of control and 111 % of control
- T/C (dose: 600.0 mg/kg/injection, schedule: Q01DX009 (ip), vehicle: Klucel (hydroxypropylcellulose) (HPC)): 102 % of control

Compound: CCCCCCCCCCCCCCCC(=O)OCC1OC(n2ccc(N)nc2=O)C(O)C1O (stereo unspecified)
- T/C (dose: 0.07 mg/kg/injection, schedule: Q01DX015 (ip), vehicle: saline with Tween-80): 150 % of control
- T/C (dose: 0.15 mg/kg/injection, schedule: Q01DX015 (ip), vehicle: saline with Tween-80): 115 % of control
- T/C (dose: 0.31 mg/kg/injection, schedule: Q01DX010 (ip), vehicle: saline with Tween-80): 110 % of control
- T/C (dose: 0.62 mg/kg/injection, schedule: Q01DX010 (ip), vehicle: saline with Tween-80): 110 % of control
- T/C (dose: 0.62 mg/kg/injection, schedule: Q01DX015 (ip), vehicle: saline with Tween-80): 375 % of control
- T/C (dose: 1.25 mg/kg/injection, schedule: Q01DX015 (ip), vehicle: saline with Tween-80): 165 % of control
- T/C (dose: 2.5 mg/kg/injection, schedule: Q01DX015 (ip), vehicle: saline with Tween-80): 225 % of control
- T/C (dose: 3.12 mg/kg/injection, schedule: Q01DX001 (ip), vehicle: saline with Tween-80): 111 % of control
- T/C (dose: 3.75 mg/kg/injection, schedule: Q01DX005 (ip), vehicle: saline with Tween-80): 100 % of control and 116 % of control
- T/C (dose: 3.75 mg/kg/injection, schedule: Q01DX015 (ip), vehicle: saline with Tween-80): 153 % of control
- T/C (dose: 5.0 mg/kg/injection, schedule: Q01DX010 (ip), vehicle: saline with Tween-80): 166 % of control and 218 % of control
- T/C (dose: 5.0 mg/kg/injection, schedule: Q01DX015 (ip), vehicle: saline with Tween-80): 212 % of control
- T/C (dose: 6.25 mg/kg/injection, schedule: Q01DX001 (ip), vehicle: saline with Tween-80): 102 % of control
- T/C (dose: 6.25 mg/kg/injection, schedule: Q14DX003 (ip), vehicle: saline with Tween-80): 112 % of control
- T/C (dose: 7.5 mg/kg/injection, schedule: Q01DX015 (ip), vehicle: saline with Tween-80): 200 % of control
- T/C (dose: 10.0 mg/kg/injection, schedule: Q01DX010 (ip), vehicle: saline with Tween-80): 180 % of control and 261 % of control
- T/C (dose: 10.0 mg/kg/injection, schedule: Q01DX015 (ip), vehicle: saline with Tween-80): 375 % of control
- T/C (dose: 12.5 mg/kg/injection, schedule: Q01DX001 (ip), vehicle: saline with Tween-80): 108 % of control
- T/C (dose: 12.5 mg/kg/injection, schedule: Q09DX002 (ip), vehicle: saline with Tween-80): 113 % of control
- T/C (dose: 12.5 mg/kg/injection, schedule: Q14DX003 (ip), vehicle: saline with Tween-80): 155 % of control
- T/C (dose: 12.5 mg/kg/injection, schedule: Q14DX004 (ip), vehicle: saline with Tween-80): 122 % of control
- T/C (dose: 15.0 mg/kg/injection, schedule: Q01DX015 (ip), vehicle: saline with Tween-80): 250 % of control
- T/C (dose: 18.8 mg/kg/injection, schedule: Q01DX001 (ip), vehicle: saline with Tween-80): 121 % of control
- T/C (dose: 25.0 mg/kg/injection, schedule: Q09DX002 (ip), vehicle: saline with Tween-80): 121 % of control
- T/C (dose: 25.0 mg/kg/injection, schedule: Q14DX003 (ip), vehicle: saline with Tween-80): 203 % of control
- T/C (dose: 30.0 mg/kg/injection, schedule: Q01DX015 (ip), vehicle: saline with Tween-80): 70 % of control
- T/C (dose: 45.0 mg/kg/injection, schedule: Q01DX005 (ip), vehicle: saline with Tween-80): 61 % of control and 110 % of control
- T/C (dose: 50.0 mg/kg/injection, schedule: Q09DX002 (ip), vehicle: saline with Tween-80): 172 % of control
- T/C (dose: 50.0 mg/kg/injection, schedule: Q14DX003 (ip), vehicle: saline with Tween-80): 183 % of control and 343 % of control
- T/C (dose: 100.0 mg/kg/injection, schedule: Q14DX003 (ip), vehicle: saline with Tween-80): 381 % of control
- T/C (dose: 100.0 mg/kg/injection, schedule: Q14DX004 (ip), vehicle: saline with Tween-80): 182 % of control
- T/C (dose: 150.0 mg/kg/injection, schedule: Q14DX003 (ip), vehicle: saline with Tween-80): 375 % of control

Compound: O=CN(c1ccccc1)c1ccccc1
- T/C (dose: 25.0 mg/kg/injection, schedule: Q01DX001 (ip), vehicle: Klucel (hydroxypropylcellulose) (HPC)): 111 % of control
- T/C [1]: 105 % of control
- T/C [2]: 97 % of control
- T/C (dose: 100.0 mg/kg/injection, schedule: Q01DX001 (ip), vehicle: other): 120 % of control
- T/C (dose: 200.0 mg/kg/injection, schedule: Q01DX001 (ip), vehicle: other): 118 % of control
- T/C (dose: 400.0 mg/kg/injection, schedule: Q01DX001 (ip), vehicle: other): 100 % of control

Compound: CCCCCCCC(=O)NCCCC
- T/C [2]: 96 % of control
- T/C [3]: 96 % of control
- T/C (dose: 400.0 mg/kg/injection, schedule: Q01DX001 (ip), vehicle: Klucel (hydroxypropylcellulose) (HPC)): 92 % of control

Compound: CC1(C)CCN1Cc1ccccc1
- T/C (dose: 12.5 mg/kg/injection, schedule: Q01DX001 (ip), vehicle: saline): 97 % of control
- T/C (dose: 25.0 mg/kg/injection, schedule: Q01DX001 (ip), vehicle: saline): 100 % of control
- T/C (dose: 50.0 mg/kg/injection, schedule: Q01DX001 (ip), vehicle: saline): 100 % of control
